Data reported in publication PMC10017027, “Design and Synthesis of Novel HIV-1 NNRTIs with Bicyclic Cores and with Improved Physicochemical Properties” (Journal of Medicinal Chemistry, 2023).
Converted amounts (≈) assume the structure as drawn. Where two headings read alike, the source gives them in different places.

What was measured:
[1] = Solubility assessment, shake-flask method; format: physicochemical; details: for solubility: shake-flask
Description: Compound solubility was measured at Analiza (Cleveland, OH) by the standard shake-flask method at pH 1.2 and 7.4 and quantitated by HPLC-UV.

HIV-1 HXB2 K103N variant = experiment: MT-4 antiviral cytopathic effect assay, HXB2-K103N; format: cell-based
Description: (§1) The prepared compounds were tested for their anti-HIV-1 activity (Table 1). A viral cytopathic effect assay in MT-4 cells with HIV-1 IIIB virus was used to determine compound potency (EC50, 50% cell viability) in protecting virus induced cell killing. Compound cytotoxicity was assessed in MT-4 cells in the absence of virus (CC50, 50% cytotoxicity). […] ETV contains bromo and amino substitutions on the DAPY core. […] Likely, with the smaller cyano arm I in 1, 3, and 5, the cores could be further elaborated to optimize the compound position in the pocket and to improve potency.
(§2) Compounds were tested in a high-throughput 384-well assay format for their ability to inhibit the virus replication-induced cytopathic effect in MT-4 cell cultures acutely infected with HIV-1 (IIIB strain), HXB2, HXB2-K103N, and HXB2-Y181C. Compounds were serially diluted (1:3) in DMSO on 384-well polypropylene plates and further diluted 200-fold into complete RPMI media (10% FBS, 1% P/S) using Biotek Micro Flow and an Agilent ECHO acoustic dispenser. Each plate contained up to eight test compounds, with negative (no drug control) and 5 μM AZT positive controls. MT-4 cells were further diluted in complete RPMI media and added to each plate using a Micro-Flo dispenser. After five days of incubation in a humidified and temperature-controlled incubator (37 °C), Cell Titer Glo (Promega) was added to the assay plates to quantify the amount of […]. EC50 and CC50 values were defined as the compound concentration that causes a 50% decrease in luminescence signal and were calculated using a sigmoidal dose-response model to generate curve fits.

[2] = Predicted clearance in human liver microsomes; format: in vitro ADME; details: pH 7.4, 1 μM compound, read-out: HLM CLint, pred (converted)
Description: Next, microsome stability was profiled in purified human liver microsomes (HLM).
Metabolic stability of compounds was assessed using HLM (Corning cat. 457117).[52] In this assay, 10 nL compounds at a concentration of 1 mM in 100% DMSO are dispensed into 384-well polypropylene plates using the Echo 550 acoustic liquid dispenser (Labcyte). Each plate contains 384 wells with a single test compound in each well.
A solution of HLM at 2 mg/mL in 100 mM K2HPO4/KH2PO4 pH 7.4 with 0.0225 mg/mL Alamethicin from Trichoderma viride (Sigma-Aldrich cat. A4665-10MG) was incubated on ice for 15 min. 5 μL of this solution was added to individual wells following 15 min incubation at room temperature; and supplemented with 5 μL NADPH Regenerating Solution of cofactors (Corning Gentest UGT Reaction Mix solutions A and B, cat. 451200 and 451220) containing 100 mM K2HPO4/KH2PO4 pH 7.4, 2.6 mM NADP^+, 6.6 mM glucose-6-phosphate, 6.6 mM MgCl2, 0.8 U/mL glucose-6-phosphate dehydrogenase, 0.1 mM sodium citrate, and 6.8 mM uridine diphosphate-glucuronic acid. The final concentration of analyte compounds at the beginning of the reactions was 1 μM. The reactions were incubated at 37 °C, and time points of 0, 5, 15, 30, 40, 50, 60, and 70 min were collected for further analysis. Background data were collected using reactions without analyte compounds.
Upon collection of the reaction time points, samples were quenched at the set time points with 30 μL of a solution of 72% acetonitrile, 8% methanol, 0.1% formic acid, 19.9% water, and labetalol as an internal standard (IS) at a concentration of 650 nM. Reaction plates were span in a centrifuge at a speed of 4000 rcf for 30 min and 4 °C, following a dilution of the 10 μL quenched reaction into 40 μL de-ionized water, yielding assay plates.
Samples were analyzed by a solid-phase extraction coupled with a quadrupole time-of-flight mass spectrometer, using an Agilent QToF 6530 RapidFire 360 system with C4 type A solid state cartridges. Analysis was performed in either positive or negative ionization modes. Mobile phases contained 0.1% formic acid in water for loading analytes onto solid state extraction cartridges, and 0.1% formic acid in acetonitrile for elution into the mass spectrometer in positive ionization mode, or 0.1% acetic acid in water for loading and 0.1% acetic acid in acetonitrile for extraction in negative ionization mode. Peak-area ratios of integrated counts for individual compounds to IS were plotted as a semi-logarithmic chart of log versus time. Initial, linear portion of decay was fitted to a linear regression equation to derive the half-time of a compound decay.
Pharmacological parameters for an analyte compound metabolism were calculated using the equations described in Table S2.
Table S2. Pharmacological parameters for an analyte compound metabolism were
calculated using the following equations:
Intrinsic Clearance (in Cl = ln 2
int, in vitro T1/2 ∗ Conc
Intrinsic Clearance Cl = Clint, in vitro ∗ Liver Mass ∗ Yield
Predicted Hepatic Cl = Clint ∗ QH
QH (Hepatic Blood Flow) = 1.3 L/hr/kg

HIV-1 HXB2 Y181C variant = experiment: MT-4 antiviral cytopathic effect assay, HXB2-Y181C; format: cell-based
Description: as §1, §2

in vitro = format: cell-based; details: human
Description: as §1, §2

[3] = preliminary biological data, in words
[4] = supplement CSV, fold change vs HXB2

Cc1cc(C#N)cc(C)c1N1CC(=O)Nc2cnc(Nc3ccc(C#N)cc3)nc21 [Compound 3, 4-(2-((4-Cyanophenyl)amino)-6-oxo-6,7-dihydropteridin-8(5H)-yl)-3,5-dimethylbenzonitrile]
solubility thermodynamic ([1]; HCl, pH 1.2, supplement CSV, read-out: HCl sol): > 100 µM | solubility ([1]; HCl, pH 1.2, read-out: solubility HCl): > 100 µM | solubility ([1]; phosphate-buffered saline, pH 7.4, read-out: solubility PBS): 2.3 µM (≈ 0.909 µg/mL) | aqueous solubility ([1]; preliminary data, in words): significantly improved | PBS sol ([1]; supplement CSV): 2.3 µM | EC50 (HIV-1 HXB2 K103N variant; Human immunodeficiency virus 1, HXB2, read-out: EC50 K103N): 45.2 nM | K103N (FC) (HIV-1 HXB2 K103N variant; fold change: ratio of potency against HXB2 K103N and parental HXB2): 5.6 | potency against K103N mutated strain (HIV-1 HXB2 K103N variant; [3]): high potency | K103N (FC) (HIV-1 HXB2 K103N variant; [4]): 5.6 | CLint scaled at 1.167 h, 1 µM [2]: 18.3 mL/min/kg | EC50 (HIV-1 HXB2 Y181C variant; Human immunodeficiency virus 1, HXB2, read-out: EC50 Y181C): 30.2 nM | Y181C (FC) (HIV-1 HXB2 Y181C variant; fold change: ratio of potency against HXB2 Y181C and parental HXB2): 3.7 | potency against Y181C mutated strain (HIV-1 HXB2 Y181C variant; [3]): high potency | Y181C (FC) (HIV-1 HXB2 Y181C variant; [4]): 3.7 | CC50 at 5 days (in vitro): > 50000 nM
